Source: article PMC5766581, “NF-κB inducing kinase is a therapeutic target for systemic lupus erythematosus” (Nature Communications, 2018)

Experiments:
Test in all cases: SelectScreen kinase panel
Format in all cases: biochemical
PRAK = target: T1, PRAK (Homo sapiens, UniProt Q8IW41)
T1 construct: purchased Invitrogen / ThermoFisher SelectScreen
Method: (§1) The ability of NIK to catalyze the hydrolysis of adenosine-5′-triphosphate (ATP) was monitored using the Transcreener ADP (adenosine-5′-diphosphate) assay (Bell Brook Labs, Fitchburg, WI). Purified human NIK kinase domain (a.a. 340–694) (0.5 nM) or mouse NIK kinase domain (a.a. 329–675) (1 nM) derived from a baculovirus-infected insect cell expression system was incubated with test compounds for 0.5–2 h in 50 mM HEPES buffer (pH 7.2) containing 10 mM MgCl2, 2 mM dithiothreitol, 10 μM ATP, 0.01% Triton X-100, 0.1% gamma-globulins from bovine blood, 1% dimethylsulfoxide (DMSO), 7 μg/mL ADP antibody and 5 nM ADP-MR121 633 tracer. Reactions were quenched by the addition of 20 mM EDTA and 0.01% Brij 35. The tracer bound to the antibody was displaced by the ADP generated during the NIK reaction, which caused a decrease in fluorescence polarization that was measured by laser excitation at 633 nm with a Fluorescence Correlation Spectroscopy Plus reader (Evotec AG). Equilibrium dissociation constant (Ki) values for NIK inhibitors are calculated from plots of activity vs. inhibitor concentration using Morrison’s quadratic equation that accounts for the potential of tight binding, and by also applying the conversion factor that accounted for competitive inhibition and the concentration of substrate used in the assay relative to its Michaelis constant (Km). The Ki values with hPKD1 (PKCμ) were determined using the same assay conditions as for NIK. Ki measurements for hKHS1 and hLRRK2, as well as broad kinase selectivity profiling for SMI1, were carried out by Invitrogen using their SelectScreen kinase assay panel (ThermoFisher Scientific, Madison, WI). The vendor offered two types of kinase activity assays, a peptide phosphorylation assay (Z′-LYTE) and an ADP quantitation assay (Adapta), as well as one type of kinase ATP site competitive binding assay (LanthaScreen). See vendor web site for technology and protocol details for each specific kinase assay.
(§2) The average % Inhibition of each kinase is reported (Supplementary Table 1).

PI3K- G = target: T2, PI3K- G (Homo sapiens, UniProt P48736)
T2 construct: purchased Invitrogen / ThermoFisher SelectScreen
Method: as §1, §2

LTK = target: T3, LTK (Homo sapiens, UniProt P29376)
T3 construct: purchased Invitrogen / ThermoFisher SelectScreen
Method: as §1, §2

Lck = target: T4, Lck (Homo sapiens, UniProt P06239)
T4 construct: purchased Invitrogen / ThermoFisher SelectScreen
Method: as §1, §2

Flt3 = target: T5, Flt3 (Homo sapiens, UniProt P36888)
T5 construct: purchased Invitrogen / ThermoFisher SelectScreen
Method: as §1, §2

EphB1 = target: T6, EphB1 (Homo sapiens, UniProt P54762)
T6 construct: purchased Invitrogen / ThermoFisher SelectScreen
Method: as §1, §2

JNK1_alpha1 = target: T7, JNK1_alpha1 (Homo sapiens, UniProt P45983)
T7 construct: purchased Invitrogen / ThermoFisher SelectScreen
Method: as §1, §2

Brk = target: T8, Brk (Homo sapiens, UniProt Q13882)
T8 construct: purchased Invitrogen / ThermoFisher SelectScreen
Method: as §1, §2

EphB3 = target: T9, EphB3 (Homo sapiens, UniProt P54753)
T9 construct: purchased Invitrogen / ThermoFisher SelectScreen
Method: as §1, §2

JAK2 = target: T10, JAK2 (Homo sapiens, UniProt O60674)
T10 construct: purchased Invitrogen / ThermoFisher SelectScreen
Method: as §1, §2

RSK3 = target: T11, RSK3 (Homo sapiens, UniProt Q15349)
T11 construct: purchased Invitrogen / ThermoFisher SelectScreen
Method: as §1, §2

ZAP-70 = target: T12, ZAP-70 (Homo sapiens, UniProt P43403)
T12 construct: purchased Invitrogen / ThermoFisher SelectScreen
Method: as §1, §2

NEK6 = target: T13, NEK6 (Homo sapiens, UniProt Q9HC98)
T13 construct: purchased Invitrogen / ThermoFisher SelectScreen
Method: as §1, §2

PKC_theta = target: T14, PKC_theta (Homo sapiens, UniProt Q04759)
T14 construct: purchased Invitrogen / ThermoFisher SelectScreen
Method: as §1, §2

HIPK1 = target: T15, HIPK1 (Homo sapiens, UniProt Q86Z02)
T15 construct: purchased Invitrogen / ThermoFisher SelectScreen
Method: as §1, §2

EGFR = target: T16, EGFR (Homo sapiens, UniProt P00533)
T16 construct: purchased Invitrogen / ThermoFisher SelectScreen
Method: as §1, §2

p38_alpha = target: T17, p38_alpha (Homo sapiens, UniProt Q16539)
T17 construct: purchased Invitrogen / ThermoFisher SelectScreen
Method: as §1, §2

NEK1 = target: T18, NEK1 (Homo sapiens, UniProt Q96PY6)
T18 construct: purchased Invitrogen / ThermoFisher SelectScreen
Method: as §1, §2

TSSK1 = target: T19, TSSK1 (Homo sapiens, UniProt Q9BXA7)
T19 construct: purchased Invitrogen / ThermoFisher SelectScreen
Method: as §1, §2

GRK5 = target: T20, GRK5 (Homo sapiens, UniProt P34947)
T20 construct: purchased Invitrogen / ThermoFisher SelectScreen
Method: as §1, §2

PKD_delta = target: T21, PKD_delta (Homo sapiens, UniProt Q05655)
T21 construct: purchased Invitrogen / ThermoFisher SelectScreen
Method: as §1, §2

PDGFR_alpha = target: T22, PDGFR_alpha (Homo sapiens, UniProt P16234)
T22 construct: purchased Invitrogen / ThermoFisher SelectScreen
Method: as §1, §2

CK1_delta = target: T23, CK1_delta (Homo sapiens, UniProt P48730)
T23 construct: purchased Invitrogen / ThermoFisher SelectScreen
Method: as §1, §2

MLK1 = target: T24, MLK1 (Homo sapiens, UniProt P80192)
T24 construct: purchased Invitrogen / ThermoFisher SelectScreen
Method: as §1, §2

HIPK4 = target: T25, HIPK4 (Homo sapiens, UniProt Q8NE63)
T25 construct: purchased Invitrogen / ThermoFisher SelectScreen
Method: as §1, §2

Met = target: T26, Met (Homo sapiens, UniProt P08581)
T26 construct: purchased Invitrogen / ThermoFisher SelectScreen
Method: as §1, §2

ErbB2 = target: T27, ErbB2 (Homo sapiens, UniProt P04626)
T27 construct: purchased Invitrogen / ThermoFisher SelectScreen
Method: as §1, §2

ARK5 = target: T28, ARK5 (Homo sapiens, UniProt O60285)
T28 construct: purchased Invitrogen / ThermoFisher SelectScreen
Method: as §1, §2

CHK2 = target: T29, CHK2 (Homo sapiens, UniProt O96017)
T29 construct: purchased Invitrogen / ThermoFisher SelectScreen
Method: as §1, §2

GRK2 = target: T30, GRK2 (Homo sapiens, UniProt P25098)
T30 construct: purchased Invitrogen / ThermoFisher SelectScreen
Method: as §1, §2

Axl = target: T31, Axl (Homo sapiens, UniProt P30530)
T31 construct: purchased Invitrogen / ThermoFisher SelectScreen
Method: as §1, §2

InsR = target: T32, InsR (Homo sapiens, UniProt P06213)
T32 construct: purchased Invitrogen / ThermoFisher SelectScreen
Method: as §1, §2

MELK = target: T33, MELK (Homo sapiens, UniProt Q14680)
T33 construct: purchased Invitrogen / ThermoFisher SelectScreen
Method: as §1, §2

T15 sequence (Q86Z02 whole entry): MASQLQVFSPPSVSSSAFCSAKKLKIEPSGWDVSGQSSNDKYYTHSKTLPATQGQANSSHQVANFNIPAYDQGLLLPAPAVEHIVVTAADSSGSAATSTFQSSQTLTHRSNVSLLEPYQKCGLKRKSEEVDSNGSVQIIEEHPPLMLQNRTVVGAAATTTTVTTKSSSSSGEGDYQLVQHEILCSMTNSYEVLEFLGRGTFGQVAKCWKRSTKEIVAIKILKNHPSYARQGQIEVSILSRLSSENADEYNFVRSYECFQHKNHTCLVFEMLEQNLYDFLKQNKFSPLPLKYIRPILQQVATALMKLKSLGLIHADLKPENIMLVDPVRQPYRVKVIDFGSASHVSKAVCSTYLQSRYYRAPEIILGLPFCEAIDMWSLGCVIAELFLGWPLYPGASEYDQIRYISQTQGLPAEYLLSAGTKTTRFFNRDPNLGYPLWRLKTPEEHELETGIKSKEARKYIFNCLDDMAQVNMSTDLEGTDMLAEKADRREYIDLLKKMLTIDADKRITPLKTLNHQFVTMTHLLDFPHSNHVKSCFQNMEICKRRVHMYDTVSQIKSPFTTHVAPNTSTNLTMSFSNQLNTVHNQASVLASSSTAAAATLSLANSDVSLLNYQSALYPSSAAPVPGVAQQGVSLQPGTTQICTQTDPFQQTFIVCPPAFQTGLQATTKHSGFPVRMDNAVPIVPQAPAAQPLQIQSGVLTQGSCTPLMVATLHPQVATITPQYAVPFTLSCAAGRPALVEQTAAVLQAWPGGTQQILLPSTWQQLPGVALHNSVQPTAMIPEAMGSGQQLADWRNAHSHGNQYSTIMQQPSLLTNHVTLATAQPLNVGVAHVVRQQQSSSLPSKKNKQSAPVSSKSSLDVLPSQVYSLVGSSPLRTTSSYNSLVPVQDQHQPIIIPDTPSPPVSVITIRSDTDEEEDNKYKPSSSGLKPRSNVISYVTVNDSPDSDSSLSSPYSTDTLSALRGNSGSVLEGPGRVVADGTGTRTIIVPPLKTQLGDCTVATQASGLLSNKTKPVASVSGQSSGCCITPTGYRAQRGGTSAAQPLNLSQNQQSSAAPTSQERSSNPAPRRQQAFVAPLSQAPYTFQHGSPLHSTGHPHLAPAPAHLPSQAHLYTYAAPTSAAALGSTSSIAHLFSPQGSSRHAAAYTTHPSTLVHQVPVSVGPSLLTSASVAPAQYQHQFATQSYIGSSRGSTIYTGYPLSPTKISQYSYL
T10 sequence (O60674 whole entry): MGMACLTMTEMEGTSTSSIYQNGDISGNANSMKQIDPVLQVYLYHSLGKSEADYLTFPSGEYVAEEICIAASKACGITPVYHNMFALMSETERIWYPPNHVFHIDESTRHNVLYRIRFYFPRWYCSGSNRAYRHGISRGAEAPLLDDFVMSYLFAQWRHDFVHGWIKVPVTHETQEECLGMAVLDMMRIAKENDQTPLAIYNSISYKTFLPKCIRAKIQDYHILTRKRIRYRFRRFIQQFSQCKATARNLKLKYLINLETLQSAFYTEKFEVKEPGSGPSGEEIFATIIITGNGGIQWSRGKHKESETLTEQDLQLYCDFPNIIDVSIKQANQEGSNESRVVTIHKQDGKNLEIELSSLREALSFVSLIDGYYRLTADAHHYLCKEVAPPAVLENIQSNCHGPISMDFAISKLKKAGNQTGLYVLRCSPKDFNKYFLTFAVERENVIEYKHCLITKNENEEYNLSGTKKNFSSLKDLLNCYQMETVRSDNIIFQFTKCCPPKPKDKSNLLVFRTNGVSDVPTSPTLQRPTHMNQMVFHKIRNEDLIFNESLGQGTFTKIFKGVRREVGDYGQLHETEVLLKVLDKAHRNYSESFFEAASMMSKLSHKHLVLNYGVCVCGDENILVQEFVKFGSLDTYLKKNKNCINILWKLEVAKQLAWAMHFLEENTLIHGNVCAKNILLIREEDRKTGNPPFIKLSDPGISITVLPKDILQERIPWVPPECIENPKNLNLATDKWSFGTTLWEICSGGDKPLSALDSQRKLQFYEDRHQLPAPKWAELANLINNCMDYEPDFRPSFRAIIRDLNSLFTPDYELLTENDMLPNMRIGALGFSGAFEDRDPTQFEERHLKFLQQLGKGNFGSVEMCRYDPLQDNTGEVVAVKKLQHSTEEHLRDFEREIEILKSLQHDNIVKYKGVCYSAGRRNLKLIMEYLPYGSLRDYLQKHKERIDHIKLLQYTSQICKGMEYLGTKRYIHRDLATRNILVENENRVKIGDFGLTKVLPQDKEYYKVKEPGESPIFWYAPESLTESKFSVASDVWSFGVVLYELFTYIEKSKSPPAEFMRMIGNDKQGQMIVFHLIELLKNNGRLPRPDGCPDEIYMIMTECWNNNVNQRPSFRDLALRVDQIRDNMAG
T25 sequence (Q8NE63 whole entry): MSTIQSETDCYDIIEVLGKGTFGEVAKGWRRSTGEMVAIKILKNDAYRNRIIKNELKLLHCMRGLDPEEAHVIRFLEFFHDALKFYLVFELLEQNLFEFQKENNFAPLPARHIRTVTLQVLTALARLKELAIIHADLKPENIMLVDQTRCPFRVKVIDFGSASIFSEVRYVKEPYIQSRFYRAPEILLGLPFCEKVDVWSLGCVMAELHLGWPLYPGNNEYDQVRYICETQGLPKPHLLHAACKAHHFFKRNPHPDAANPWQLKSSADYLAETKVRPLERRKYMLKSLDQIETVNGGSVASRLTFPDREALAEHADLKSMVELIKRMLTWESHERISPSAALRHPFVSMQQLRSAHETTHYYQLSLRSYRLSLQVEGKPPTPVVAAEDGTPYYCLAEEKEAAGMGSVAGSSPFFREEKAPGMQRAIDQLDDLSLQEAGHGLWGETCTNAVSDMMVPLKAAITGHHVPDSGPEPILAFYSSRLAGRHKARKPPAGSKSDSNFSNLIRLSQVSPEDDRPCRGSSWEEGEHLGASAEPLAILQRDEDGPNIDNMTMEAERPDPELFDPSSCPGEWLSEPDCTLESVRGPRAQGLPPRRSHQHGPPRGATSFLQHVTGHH
T7 sequence (P45983 1-384 isoform P45983-2): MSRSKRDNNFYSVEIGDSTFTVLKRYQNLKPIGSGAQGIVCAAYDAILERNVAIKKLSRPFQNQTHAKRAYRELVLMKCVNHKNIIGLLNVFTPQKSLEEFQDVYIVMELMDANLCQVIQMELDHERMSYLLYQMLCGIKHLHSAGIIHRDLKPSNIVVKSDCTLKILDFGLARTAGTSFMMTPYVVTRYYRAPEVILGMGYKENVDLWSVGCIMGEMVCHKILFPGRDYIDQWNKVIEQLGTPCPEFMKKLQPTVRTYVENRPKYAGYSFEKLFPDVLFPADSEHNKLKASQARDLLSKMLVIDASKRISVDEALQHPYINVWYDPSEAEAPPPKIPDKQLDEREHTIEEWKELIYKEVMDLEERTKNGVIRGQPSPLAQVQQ
T19 sequence (Q9BXA7 whole entry): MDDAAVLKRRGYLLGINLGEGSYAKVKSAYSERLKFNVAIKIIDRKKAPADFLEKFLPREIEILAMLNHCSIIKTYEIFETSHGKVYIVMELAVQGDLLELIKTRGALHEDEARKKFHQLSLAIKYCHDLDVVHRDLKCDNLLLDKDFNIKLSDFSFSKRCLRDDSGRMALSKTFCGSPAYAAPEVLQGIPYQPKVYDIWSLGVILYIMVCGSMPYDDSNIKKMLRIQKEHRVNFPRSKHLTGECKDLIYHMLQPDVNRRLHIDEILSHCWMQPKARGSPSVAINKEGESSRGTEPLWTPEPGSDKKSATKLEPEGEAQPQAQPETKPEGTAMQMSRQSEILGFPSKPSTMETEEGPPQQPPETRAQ
T16 sequence (P00533 25-1210): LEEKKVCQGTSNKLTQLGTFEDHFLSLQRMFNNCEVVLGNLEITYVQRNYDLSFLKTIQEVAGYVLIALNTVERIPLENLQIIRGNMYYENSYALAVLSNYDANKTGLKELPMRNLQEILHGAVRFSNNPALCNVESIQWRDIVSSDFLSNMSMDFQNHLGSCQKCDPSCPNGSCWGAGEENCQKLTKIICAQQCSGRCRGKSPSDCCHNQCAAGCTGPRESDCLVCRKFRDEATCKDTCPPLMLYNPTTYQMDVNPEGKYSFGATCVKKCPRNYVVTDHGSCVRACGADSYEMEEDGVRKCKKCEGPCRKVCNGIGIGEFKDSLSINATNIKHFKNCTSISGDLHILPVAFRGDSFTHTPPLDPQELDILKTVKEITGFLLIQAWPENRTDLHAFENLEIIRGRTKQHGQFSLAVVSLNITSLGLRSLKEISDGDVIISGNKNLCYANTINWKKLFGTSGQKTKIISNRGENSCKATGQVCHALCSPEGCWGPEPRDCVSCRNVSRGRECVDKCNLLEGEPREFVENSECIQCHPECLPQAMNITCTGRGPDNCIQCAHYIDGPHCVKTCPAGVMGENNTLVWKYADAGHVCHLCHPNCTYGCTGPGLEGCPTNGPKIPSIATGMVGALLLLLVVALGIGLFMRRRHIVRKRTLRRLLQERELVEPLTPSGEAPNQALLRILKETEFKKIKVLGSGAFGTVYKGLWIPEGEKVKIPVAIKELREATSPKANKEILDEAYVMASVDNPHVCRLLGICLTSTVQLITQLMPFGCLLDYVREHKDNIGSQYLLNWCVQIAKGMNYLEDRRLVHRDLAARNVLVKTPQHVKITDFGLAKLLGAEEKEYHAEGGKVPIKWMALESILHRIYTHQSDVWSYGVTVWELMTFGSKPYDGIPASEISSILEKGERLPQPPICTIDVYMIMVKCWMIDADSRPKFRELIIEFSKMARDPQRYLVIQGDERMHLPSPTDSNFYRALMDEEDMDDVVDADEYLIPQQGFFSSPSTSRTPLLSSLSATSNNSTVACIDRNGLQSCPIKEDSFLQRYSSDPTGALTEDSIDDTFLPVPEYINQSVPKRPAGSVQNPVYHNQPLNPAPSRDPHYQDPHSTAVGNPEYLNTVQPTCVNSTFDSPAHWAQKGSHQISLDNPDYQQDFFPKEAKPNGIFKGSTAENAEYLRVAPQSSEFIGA

COc1cc(C(N)=O)nc(-c2cccc(C#C[C@]3(O)CCN(C)C3=O)c2)c1 [NIK SMI1]
inhibition at 1 µM (PRAK): 6% | inhibition at 1 µM (PI3K- G): -2.9% | inhibition at 1 µM (LTK): -1% | inhibition at 1 µM (Lck): 0.5% | inhibition at 1 µM (Flt3): 13.5% | inhibition at 1 µM (EphB1): 7% | inhibition at 1 µM (JNK1_alpha1): 5.6% | inhibition at 1 µM (Brk): 7% | inhibition at 1 µM (EphB3): 5.5% | inhibition at 1 µM (JAK2): 8.5% | inhibition at 1 µM (RSK3): 5% | inhibition at 1 µM (ZAP-70): 17% | inhibition at 1 µM (NEK6): 17% | inhibition at 1 µM (PKC_theta): -6% | inhibition at 1 µM (HIPK1): 4.5% | inhibition at 1 µM (EGFR): -11.5% | inhibition at 1 µM (p38_alpha): -7.5% | inhibition at 1 µM (NEK1): 31.5% | inhibition at 1 µM (TSSK1): 61% | inhibition at 1 µM (GRK5): 0.5% | inhibition at 1 µM (PKD_delta): 1.5% | inhibition at 1 µM (PDGFR_alpha): -4.5% | inhibition at 1 µM (CK1_delta): -4.5% | inhibition at 1 µM (MLK1): -1% | inhibition at 1 µM (HIPK4): 3% | inhibition at 1 µM (Met): 0% | inhibition at 1 µM (ErbB2): -1.5% | inhibition at 1 µM (ARK5): 1.5% | inhibition at 1 µM (CHK2): 4.5% | inhibition at 1 µM (GRK2): 4.5% | inhibition at 1 µM (Axl): 9.3% | inhibition at 1 µM (InsR): 2% | inhibition at 1 µM (MELK): 26.5%
